Columns and labels:
[1] = test system: p38 MAPK/MAPKAPK2/TSC2/mTORC1/S6K1 cascade; experiment: Western blots of eNMDAR-triggered signaling; format: cell-based; details: 10 μM
Source text: This experiment was replicated 4 times with similar results and quantified in FIG. 20C.

Tsc2+/- mice [2] = experiment: Quantitative confocal immunohistochemistry of synaptophysin (SY38) in hippocampus; format: in vivo, mouse; details: i.p. loading 92 μmol/kg then 4.6 μmol/kg twice daily, two and a half days
Source text: To determine the effects of […] antagonists on the brain histology of Tsc2^+/- mice, quantitative confocal immunohistochemistry was used to analyze coronal brain slices from 3-month-old wild-type (WT) and Tsc2^+/- mice that had been treated for two and a half days with vehicle, memantine or NitroSynapsin. Tsc2+/- mice on the C57Bl/6J background received via the intraperitoneal route either vehicle or a loading dose of 92 μmol/kg of memantine or NitroSynapsin, followed by 4.6 μmol/kg of drug twice daily for two-and-a-half-days, with the last dose 3 hours prior to the behavioral training session (for a total of five drug injections). This dosing regimen yields an effective concentration of drug at NMDARs in the brain of 1-10 μM.

Mef2c-het mice = experiment: Immunohistochemistry and stereological cell counting in hippocampus after chronic treatment; format: in vivo, mouse; details: optical dissector
Source text: Mef2c heterozygous knockout (Mef2c-het) mice were created by crossing mice carrying the conventional exon 2-deleted allele of Mef2c (Mef2c^Δ2) with their WT littermates. All procedures for maintaining and using these mice were approved by the Institutional Animal Care and Use Committee (IACUC) at the Sanford Burnham Prebys Medical Discovery Institute. In this study, only male mice were used for the behavioral assays to insure uniformity (either with or without drug treatment). Chronic treatment with memantine, NitroSynapsin (both at 4.6 μmol/kg body weight) or vehicle (PBS) was administered via i.p. injection, twice a day for at least 3 months, starting at ˜2.5 weeks of age. This age was chosen because mice are still juveniles and thus treatment could begin in human at an equivalent stage.
Mice were perfused with PBS buffer and then 2% paraformaldehyde in PBS (PFA).
After perfusion, brains were removed and placed into 2% PFA overnight for post-fixation and then sunk in 30% sucrose in PBS prior to freezing. Cryostat sections were cut at a thickness of 15 μm. Sections were soaked in Antigen Unmasking Solution (Vector) and microwaved for 30 s, followed by permeabilization with 0.25% Triton X-100 in PBS for 15 min. Primary antibodies were incubated for 16 h at 4° C. and fluorescence-conjugated secondary antibodies for 2 h at 25° C. Numerous unstained cells in each field served as an internal control for staining specificity. Primary antibodies included: NeuN (mouse, EMD Millipore), activated caspase-3 (rabbit, Cell Signaling), VGLUT1 (guinea pig, SYSY), VGLUT2 (rabbit, SYSY), VGAT (mouse, SYSY), synaptophysin (mouse, Sigma), GFAP (mouse, Sigma), PCNA (mouse, Santa Cruz), DCX (goat, Santa Cruz). TUNEL assay was performed to assess apoptosis using the Roche In Situ Cell Death Detection Kit per vender's instruction. The number of cells positive or percent area occupied by NeuN, activated caspase-3, TUNEL, GFAP, PCNA, or DCX was counted in specific brain regions using an optical dissector, or estimated by quantitative confocal immunohistochemistry or optical density, as described previously.

Tsc2+/- mice [3] = experiment: Fear conditioning test; format: in vivo, mouse; details: two-and-a-half-day treatment, last dose 3 hours before training
Source text: To determine the effects of eNMDAR antagonists on the brain histology of Tsc2^+/− mice, quantitative confocal immunohistochemistry was used to analyze coronal brain slices from 3-month-old wild-type (WT) and Tsc2^+/− mice that had been treated for two and a half days with vehicle, memantine or NitroSynapsin. Tsc2+/− mice on the C57Bl/6J background received via the intraperitoneal route either vehicle or a loading dose of 92 μmol/kg of memantine or NitroSynapsin, followed by 4.6 μmol/kg of drug twice daily for two-and-a-half-days, with the last dose 3 hours prior to the behavioral training session (for a total of five drug injections). This dosing regimen yields an effective concentration of drug at NMDARs in the brain of 1-10 μM.
Fear conditioning tests were performed on three-month-old Tsc2^+/+ and Tsc2^+/− mice to explore the effects of eNMDAR antagonists on anxiety, and learning and memory deficits in Tsc2^+/− mice. Vehicle, memantine or NitroSynapsin were administered for two and a half days, with the last dose of drug occurring 3-hours prior to the first training session. […] Freezing time of three-month-old WT and Tsc2^+/− transgenic mice treated with vehicle, memantine or NitroSynapsin in fear-conditioning trials. […] Values are mean+s.e.m. (n=7-12 mice per group). […]

[4] = Fung and Hardan 2015; cited from earlier work

SMILES: CC12CC3CC(C)(C1)CC(N)(C3)C2 [memantine, reference compound]
- phosphorylation/activation of the p38 MAPK/MAPKAPK2/TSC2/mTORC1/S6K1 cascade on eNMDAR stimulation [1]: reduced this signaling
- synaptophysin (SY38) staining in hippocampus (% area) (Tsc2+/- mice [2]): not statistically significant
- total number of NeuN+ cells in hippocampus (Mef2c-het mice): but not memantine (M), was significantly greater than in vehicle (V)-treated mice
- context discrimination (freezing time, training vs novel context) (Tsc2+/- mice [3]): failed to mitigate this deficit
- outcome in human clinical trials for ASD/IDD [4]: failed in human clinical trials

— patent US11529319B2, “Methods and compositions for treating neurological conditions” (priority 2017, dated 2022)
